Assay [1] relates to dizocilpine-induced locomotor hyperactivity. Briefly: Dizocilpine (MK-801)-induced locomotor hyperactivity in mice. In kind it is in vivo. The settings on record: reversal of dizocilpine (MK-801)-induced hyperlocomotion, male CD-1 mice, i.p., 30 minutes before the experiment. The protocol:
Potential antipsychotic activity was tested for the representative compounds in mouse model of psychosis, involving the induction of locomotor hyperactivity by administering psychotomimetic substance—dizocilpine. The ability of a test compound to remove this effect is a measure of potential antipsychotic activity.
Male CD-1 mice were group-housed for 2-3 day period in polycarbonate Makrolon type 3 cages (dimensions 26.5×15×42 cm) in an environmentally controlled, experimental room (ambient temperature 22-20° C.; relative humidity 50-60%; 12:12 light:dark cycle, lights on at 8:00), in groups of 15. Standard laboratory food (Ssniff M-Z) and filtered water were freely available. On the day before experiments the equipment produced “white noise” was turned on for 30 minutes and mice were weighted exact to 1 g. Animals were assigned randomly to treatment groups. All the experiments were performed by two observers unaware of the treatment applied between 9:00 and 14:00 on separate groups of animals. Mice were used only once and were killed immediately after the experiment.
The locomotor activity was recorded with an Opto M3 multi-channel activity monitor (MuttiDevice Software v.1.3, Columbus Instruments). The mice were individually placed in plastic cages (22×12×13 cm) for 30 minutes habituation period, and then the crossings of each channel (ambulation) were counted during 1 h with data recording every 5 minutes. The cages were cleaned up with 70% ethanol after examining each mouse. Drugs were administered to 10 mice per treatment group. Test compounds were given 30 minutes before the experiment. Dizocilpine was administered 30 minutes before the test.
Test compounds were prepared as a suspension in 1% aqueous solution of Tween 80, and dizocilpine was dissolved in distilled water immediately before administration. An injection volume of 10 ml/kg was used and all compounds were administered intraperitoneally (i.p.).

The target of assay [2] is T1, 5-HT reuptake (rat brain synaptosomes) (Rattus norvegicus, UniProt P31652).
T1 construct: measuring [^3H]5-HT incorporation into rat brain synaptosomes; from tissue; host or cells: rat brain synaptosomes
T1 sequence (P31652 whole entry): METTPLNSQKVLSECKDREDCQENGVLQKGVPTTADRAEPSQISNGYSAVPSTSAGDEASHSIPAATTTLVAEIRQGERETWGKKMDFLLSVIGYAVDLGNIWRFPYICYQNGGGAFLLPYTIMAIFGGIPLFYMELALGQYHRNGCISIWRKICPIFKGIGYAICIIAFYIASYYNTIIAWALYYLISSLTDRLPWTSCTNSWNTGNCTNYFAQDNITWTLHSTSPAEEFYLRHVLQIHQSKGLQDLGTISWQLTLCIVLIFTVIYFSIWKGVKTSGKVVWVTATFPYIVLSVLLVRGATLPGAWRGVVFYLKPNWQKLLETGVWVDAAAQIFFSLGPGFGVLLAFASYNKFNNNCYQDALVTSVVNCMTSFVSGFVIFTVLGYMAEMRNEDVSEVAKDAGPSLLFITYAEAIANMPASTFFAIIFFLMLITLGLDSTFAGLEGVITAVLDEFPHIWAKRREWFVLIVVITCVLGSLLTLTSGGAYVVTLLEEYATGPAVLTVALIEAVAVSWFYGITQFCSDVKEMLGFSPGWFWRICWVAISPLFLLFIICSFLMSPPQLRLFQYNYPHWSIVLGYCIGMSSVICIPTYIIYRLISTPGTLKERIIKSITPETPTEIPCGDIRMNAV
Briefly: 5-HT reuptake, [3H]5-HT incorporation into rat brain synaptosomes. In kind it is biochemical. As to conditions: 15 min/37° C., read-out: SERT IC50. The protocol:
5-HT reuptake was tested according to Perovic, S. and Muller, W.E.G. (1995) Arzneim-Forsch. Drug Res., 45: 1145-1148 by measuring [^3H]5-HT incorporation into rat brain synaptosomes. Assay conditions are as follows:
Tracer: [^3H]5-HT (0.2 μCi/ml)
Incubation: 15 min/37° C.

Structures are written as SMILES.

Regarding `O=S(=O)(NC1CCN(CCCc2noc3cc(F)ccc23)C1)c1ccc2ccccc2c1` (centres unmarked) [Compound 21, N-[1-[3-(6-Fluoro-1,2-benzoxazol-3-yl)propyl]pyrrolidin-3-yl]naphthalene-2-sulphonamide], in assay [1], the “MED* [mg/kg] (minimum effective dose)” value amounted to 10 mg/kg.
The same measure, in the same setting: to `O=S(=O)(NC1CCN(CCCc2noc3cc(F)ccc23)C1)c1cc2ccccc2s1` (centres unmarked) [Compound 25, N-[1-[3-(6-Fluoro-1,2-benzoxazol-3-yl)propyl]pyrrolidin-3-yl]-benzothiophene-2-sulphonamide] belongs 5 mg/kg.
With `O=S(=O)(NC1CCN(CCCc2c[nH]c3ccc(F)cc23)C1)c1ccc2ccccc2c1` (centres unmarked) [Compound 80, N-[1-[3-(5-Fluoro-1H-indol-3-yl)propyl]pyrrolidin-3-yl]naphthalene-2-sulphonamide], the half-inhibitory concentration (IC50) in assay [2] worked out at 2.1 nM.
The same measure, in the same setting: in the case of `O=S(=O)(NC1CCN(CCCc2c[nH]c3ccc(Cl)cc23)C1)c1cccc(Cl)c1` (centres unmarked) [Compound 84, 3-Chloro-N-[1-[3-(5-chloro-1H-indol-3-yl)propyl]pyrrolidin-3-yl]benzenesulphonamide] it was 64 nM.
Take `O=S(=O)(N[C@@H]1CCN(CCCc2noc3cc(F)ccc23)C1)c1cc2ccccc2s1` [Compound 196, N-[(3R)-1-[3-(6-Fluoro-1,2-benzoxazol-3-yl)propyl]pyrrolidin-3-yl]benzo-thiophene-2-sulphonamide]: the “MED* [mg/kg] (minimum effective dose)” value in assay [1] was determined as 2.5 mg/kg.

One may read the IC50 as the concentration needed to halve the response being measured.

Values taken from US20140135310A1, “SULPHONAMIDE DERIVATIVES OF ALICYCLIC AMINES FOR THE TREATMENT OF CENTRAL NERVOUS SYSTEM DISEASES” (Adamed Sp. z o.o., priority 2011, published 2014).
